Biological target: T1, MelBSt WT (Salmonella typhimurium, UniProt P30878)
T1 construct: Cys scanning mutagenesis for the full-length MelBSt; expressed in transfected cells; host or cells: E. coli DW2 (melA+, melB-, lacZ-Y-)
Experiment: [3H]Melibiose transport time course with DW2 intact cells expressing MelBSt WT
Format: cell-based
Conditions: 0.4 mM [3H]melibiose
Method: Fig. 1 Functional characterizations. a [^3H] Melibiose transport time course with intact cells. E. coli DW2 strain (melB^−, lacZ^−Y^−) expressed with the WT, D59C, or D59A MelBSt mutants were subjected to [^3H]melibiose active transport assay at 0.4 mM and 10 mCi/mmol in the presence of 20 mM or 100 mM NaCl or LiCl by a fast filtration method. Inset, melibiose fermentation assay. Transformants with DW2 strain were plated on MacConkey agar plates containing 30 mM melibiose as the sole carbohydrate source and pH sensor neutral red, and incubated at 37 °C for 16–18 h before imaging. Number of tests = 3, from different batch of cells or duplicate measurements from same batch of sample. b Ligand binding by Trp→dansyl galactoside (D^2G) FRET assay. Purified proteins at 1 μM concentration in 20 mM Tris-HCl, pH 7.5, 100 mM CholCl, 10% glycerol, and 0.03% UDM were subjected to steady-state fluorescence measurements as described in Methods. On the time-trace, 1.8 μL of 1 mM D^2G at 10 μM was added into 180 μL of protein solutions at 1-min point, followed by supplying 10 μL of 5 mM DDMB or 5 mM α-NPG to displace the bound D^2G. For testing Na^+ or Li^+ binding, they are added into the solution before displacement with the second sugar. The structure of DDMB or α-NPG is shown in a chair form, and the carbon positions are labeled. Glycosidic bonds are indicated by arrows. Both are α-galactosides containing a substituent at the anomeric carbon-1. The data were from duplicate measurements.
The overexpression of MelBSt was carried out in the E. coli DW2 strain (melA^+, melB^−, and lacZ^−Y^−) from a constitutive expression plasmid pK95ΔAH/MelBSt/CHis10[9],[28],[33]. The D59C or D59A mutant with Cys or Ala at the position 59, respectively, was constructed previously[9] or in this study by QuikChange Site-Directed Mutagenesis kit and confirmed by DNA sequencing analysis. E. coli DW2 cells containing a given plasmid were grown in Luria-Bertani (LB) broth (5 g yeast extract and 10 g tryptone per liter with 171 mM NaCl) with 100 mg/L of ampicillin in a 37 °C shaker. The overnight cultures were diluted by 5% with LB broth supplemented with 0.5% glycerol and 100 mg/L of ampicillin, and constitutive overexpression was obtained by shaking at 30 °C for another 5 h.
E. coli DW2 cells expressing MelBSt were washed with 100 mM KPi, pH 7.5, to remove Na^+ contamination as described previously. The cell pellets were resuspended with the assay buffer (100 mM KPi, pH 7.5, 10 mM MgSO4) and adjusted to A420 of 10 (∼0.7 mg protein/ml). Using a fast filtration, transport time course at 0.4 mM melibiose (at specific activity of 10 mCi/mmol) was carried out in the absence or presence of NaCl or LiCl at 20 mM or 100 mM, respectively, and intracellular melibiose was determined as described previously.

T1 sequence (P30878 whole entry): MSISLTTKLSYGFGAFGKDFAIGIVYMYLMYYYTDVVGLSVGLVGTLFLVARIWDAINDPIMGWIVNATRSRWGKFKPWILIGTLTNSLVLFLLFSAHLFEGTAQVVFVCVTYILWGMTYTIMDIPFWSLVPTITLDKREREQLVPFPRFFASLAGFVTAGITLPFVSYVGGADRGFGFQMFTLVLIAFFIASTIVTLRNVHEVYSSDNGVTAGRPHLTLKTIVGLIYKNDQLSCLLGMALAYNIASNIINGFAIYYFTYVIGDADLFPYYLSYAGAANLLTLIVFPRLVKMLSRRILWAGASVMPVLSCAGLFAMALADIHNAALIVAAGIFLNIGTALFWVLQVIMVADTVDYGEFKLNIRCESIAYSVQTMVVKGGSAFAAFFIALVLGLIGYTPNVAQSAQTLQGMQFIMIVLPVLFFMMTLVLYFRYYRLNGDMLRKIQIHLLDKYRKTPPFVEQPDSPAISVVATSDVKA

In the case of `OC[C@H]1O[C@H](OCC2O[C@@H](O)[C@H](O)[C@@H](O)[C@@H]2O)[C@H](O)[C@@H](O)[C@H]1O` (stereo partly shown) [Melibiose], the Melibiose transport (H+, Time 0.08333) is reported as 4.65, the Melibiose transport (H+, Time 0.16667) is reported as 11.5871 and the Melibiose transport (H+, Time 0.5) is reported as 17.8175. The Melibiose transport (H+, Time 1) was 26.1053, the Melibiose transport (H+, Time 2) was 32.522 and the Melibiose transport (H+, Time 5) was 41.2117. It also gave a Melibiose transport (H+, Time 10) of 51.4376, a Melibiose transport (H+, Time 30) of 52.9751 and a Melibiose transport (Li+, 20 mM, Time 0.08333) of 5.082. The Melibiose transport (Li+, 20 mM, Time 0.16667) was 9.37, the Melibiose transport (Li+, 20 mM, Time 0.5) was 20.2553 and the Melibiose transport (Li+, 20 mM, Time 1) was 29.5856. It also gave a Melibiose transport (Li+, 20 mM, Time 2) of 49.8958, a Melibiose transport (Li+, 20 mM, Time 5) of 106.047 and a Melibiose transport (Li+, 20 mM, Time 10) of 190.811. The Melibiose transport (Li+, 20 mM, Time 30) was 313.001, the Melibiose transport (Li+, 100 mM, Time 0.08333) was 13.3342 and the Melibiose transport (Li+, 100 mM, Time 0.16667) was 15.8108. The Melibiose transport (Li+, 100 mM, Time 0.5) was 32.509, the Melibiose transport (Li+, 100 mM, Time 1) was 62.5704 and the Melibiose transport (Li+, 100 mM, Time 2) was 85.8864. The Melibiose transport (Li+, 100 mM, Time 5) was 142.587, the Melibiose transport (Li+, 100 mM, Time 10) was 325.223 and the Melibiose transport (Li+, 100 mM, Time 30) was 437.5. For the same compound, the Melibiose transport (Na+, 20 mM, Time 0.08333) was 6.156, the Melibiose transport (Na+, 20 mM, Time 0.16667) was 13.1731 and the Melibiose transport (Na+, 20 mM, Time 0.5) was 23.5532. The Melibiose transport (Na+, 20 mM, Time 1) was 28.6147, the Melibiose transport (Na+, 20 mM, Time 2) was 46.7036 and the Melibiose transport (Na+, 20 mM, Time 5) was 103.453. For the same compound, the Melibiose transport (Na+, 20 mM, Time 10) was 203.925, the Melibiose transport (Na+, 20 mM, Time 30) was 320.843 and the Melibiose transport (Na+, 100 mM, Time 0.08333) was 7.0516. The Melibiose transport (Na+, 100 mM, Time 0.16667) was 7.9788, the Melibiose transport (Na+, 100 mM, Time 0.5) was 20.0324 and the Melibiose transport (Na+, 100 mM, Time 1) was 44.6398. The Melibiose transport (Na+, 100 mM, Time 2) was 78.2935, the Melibiose transport (Na+, 100 mM, Time 5) was 118.81 and the Melibiose transport (Na+, 100 mM, Time 10) was 202.959. For the same compound, the Melibiose transport (Na+, 100 mM, Time 30) was 340.508.
